# Reference: patent US20220281848A1, “PYRAZOLE-SUBSTITUTED PYRROLIDINONES AS HERBICIDES” (FMC Corporation, priority 2019, published 2022)
# System: plants
# Test: Test D pre-emergence, other plants of Tables D1 and D3
# Format: in vivo
# Settings: preemergent, 20 DAA
# Experimental: A formulation containing 50 g/L of the test chemical was prepared by dissolving the active ingredient in a mixture of organic solvents and emulsifier, details of which are provided in the table. This formulation was then mixed with a small, variable amount of acetone to aid dissolution, before addition of a 0.2% v/v aqueous solution of an adjuvant, as the aqueous diluent, to form an aqueous spray solution which contains a predetermined concentration of the active ingredient.
# This aqueous spray solution was then sprayed onto plants including maize and wheat that had been seed treated with a herbicide safener, after one day's cultivation (for pre-emergence) or after about 12 days' cultivation (for post-emergence). The plants were grown from seeds sown in standard soil, placed in a glasshouse under controlled conditions (at 24/18° C. or 20/16° C., day/night; 16 h light; 65% humidity). After spray application the plants were then grown in a glasshouse under the same conditions and watered twice daily. After 15 d for post-emergence and 20 DAA for pre-emergence the test was evaluated (100=total damage to plant; 0=no damage to plant).
smiles,measurement,setting,value
CN1CC(c2cc(C(F)(F)F)n(C)n2)C(C(=O)Nc2ccc(F)cc2F)C1=O (racemic) [Compound 6],"damage to plant (100=total damage to plant; 0=no damage to plant), ABUTH",rate 15,0
same,"damage to plant (100=total damage to plant; 0=no damage to plant), ABUTH",rate 30,0
same,"damage to plant (100=total damage to plant; 0=no damage to plant), ABUTH",rate 60,0
same,"damage to plant (100=total damage to plant; 0=no damage to plant), ABUTH",rate 130,0
same,"damage to plant (100=total damage to plant; 0=no damage to plant), ABUTH",rate 250,0
same,"damage to plant (100=total damage to plant; 0=no damage to plant), ABUTH",rate 500,0
same,"damage to plant (100=total damage to plant; 0=no damage to plant), AMARE",rate 15,0
same,"damage to plant (100=total damage to plant; 0=no damage to plant), AMARE",rate 30,0
same,"damage to plant (100=total damage to plant; 0=no damage to plant), AMARE",rate 60,0
same,"damage to plant (100=total damage to plant; 0=no damage to plant), AMARE",rate 130,0
same,"damage to plant (100=total damage to plant; 0=no damage to plant), AMARE",rate 250,0
same,"damage to plant (100=total damage to plant; 0=no damage to plant), AMARE",rate 500,0
same,"damage to plant (100=total damage to plant; 0=no damage to plant), BIDPI",rate 15,0
same,"damage to plant (100=total damage to plant; 0=no damage to plant), BIDPI",rate 30,0
same,"damage to plant (100=total damage to plant; 0=no damage to plant), BIDPI",rate 60,0
same,"damage to plant (100=total damage to plant; 0=no damage to plant), BIDPI",rate 130,0
same,"damage to plant (100=total damage to plant; 0=no damage to plant), BIDPI",rate 250,0
same,"damage to plant (100=total damage to plant; 0=no damage to plant), BIDPI",rate 500,0
same,"damage to plant (100=total damage to plant; 0=no damage to plant), BRAPL",rate 15,0
same,"damage to plant (100=total damage to plant; 0=no damage to plant), BRAPL",rate 30,50
same,"damage to plant (100=total damage to plant; 0=no damage to plant), BRAPL",rate 60,60
same,"damage to plant (100=total damage to plant; 0=no damage to plant), BRAPL",rate 130,80
same,"damage to plant (100=total damage to plant; 0=no damage to plant), BRAPL",rate 250,80
same,"damage to plant (100=total damage to plant; 0=no damage to plant), BRAPL",rate 500,90
same,"damage to plant (100=total damage to plant; 0=no damage to plant), CYPES",rate 15,0
same,"damage to plant (100=total damage to plant; 0=no damage to plant), CYPES",rate 30,0
same,"damage to plant (100=total damage to plant; 0=no damage to plant), CYPES",rate 60,0
same,"damage to plant (100=total damage to plant; 0=no damage to plant), CYPES",rate 130,0
same,"damage to plant (100=total damage to plant; 0=no damage to plant), CYPES",rate 250,10
same,"damage to plant (100=total damage to plant; 0=no damage to plant), CYPES",rate 500,80
same,"damage to plant (100=total damage to plant; 0=no damage to plant), DIGSA",rate 15,0
same,"damage to plant (100=total damage to plant; 0=no damage to plant), DIGSA",rate 30,30
same,"damage to plant (100=total damage to plant; 0=no damage to plant), DIGSA",rate 60,90
same,"damage to plant (100=total damage to plant; 0=no damage to plant), DIGSA",rate 130,90
same,"damage to plant (100=total damage to plant; 0=no damage to plant), DIGSA",rate 250,90
same,"damage to plant (100=total damage to plant; 0=no damage to plant), DIGSA",rate 500,100
same,"damage to plant (100=total damage to plant; 0=no damage to plant), ECHCG",rate 15,0
same,"damage to plant (100=total damage to plant; 0=no damage to plant), ECHCG",rate 30,20
same,"damage to plant (100=total damage to plant; 0=no damage to plant), ECHCG",rate 60,20
same,"damage to plant (100=total damage to plant; 0=no damage to plant), ECHCG",rate 130,80
same,"damage to plant (100=total damage to plant; 0=no damage to plant), ECHCG",rate 250,90
same,"damage to plant (100=total damage to plant; 0=no damage to plant), ECHCG",rate 500,100
same,"damage to plant (100=total damage to plant; 0=no damage to plant), ELEIN",rate 15,0
same,"damage to plant (100=total damage to plant; 0=no damage to plant), ELEIN",rate 30,0
same,"damage to plant (100=total damage to plant; 0=no damage to plant), ELEIN",rate 60,0
same,"damage to plant (100=total damage to plant; 0=no damage to plant), ELEIN",rate 130,0
same,"damage to plant (100=total damage to plant; 0=no damage to plant), ELEIN",rate 250,0
same,"damage to plant (100=total damage to plant; 0=no damage to plant), ELEIN",rate 500,0
same,"damage to plant (100=total damage to plant; 0=no damage to plant), EPHHL",rate 15,0
same,"damage to plant (100=total damage to plant; 0=no damage to plant), EPHHL",rate 30,0
same,"damage to plant (100=total damage to plant; 0=no damage to plant), EPHHL",rate 60,0
same,"damage to plant (100=total damage to plant; 0=no damage to plant), EPHHL",rate 130,0
same,"damage to plant (100=total damage to plant; 0=no damage to plant), EPHHL",rate 250,0
same,"damage to plant (100=total damage to plant; 0=no damage to plant), EPHHL",rate 500,0
same,"damage to plant (100=total damage to plant; 0=no damage to plant), GLXMA",rate 15,0
same,"damage to plant (100=total damage to plant; 0=no damage to plant), GLXMA",rate 30,0
same,"damage to plant (100=total damage to plant; 0=no damage to plant), GLXMA",rate 60,0
same,"damage to plant (100=total damage to plant; 0=no damage to plant), GLXMA",rate 130,0
same,"damage to plant (100=total damage to plant; 0=no damage to plant), GLXMA",rate 250,0
same,"damage to plant (100=total damage to plant; 0=no damage to plant), GLXMA",rate 500,0
same,"damage to plant (100=total damage to plant; 0=no damage to plant), IPOHE",rate 15,0
same,"damage to plant (100=total damage to plant; 0=no damage to plant), IPOHE",rate 30,0
same,"damage to plant (100=total damage to plant; 0=no damage to plant), IPOHE",rate 60,0
same,"damage to plant (100=total damage to plant; 0=no damage to plant), IPOHE",rate 130,0
same,"damage to plant (100=total damage to plant; 0=no damage to plant), IPOHE",rate 250,0
same,"damage to plant (100=total damage to plant; 0=no damage to plant), IPOHE",rate 500,0
same,"damage to plant (100=total damage to plant; 0=no damage to plant), ORYSA",rate 15,0
same,"damage to plant (100=total damage to plant; 0=no damage to plant), ORYSA",rate 30,0
same,"damage to plant (100=total damage to plant; 0=no damage to plant), ORYSA",rate 60,0
same,"damage to plant (100=total damage to plant; 0=no damage to plant), ORYSA",rate 130,0
same,"damage to plant (100=total damage to plant; 0=no damage to plant), ORYSA",rate 250,0
same,"damage to plant (100=total damage to plant; 0=no damage to plant), ORYSA",rate 500,0
same,"damage to plant (100=total damage to plant; 0=no damage to plant), PANMI",rate 15,0
same,"damage to plant (100=total damage to plant; 0=no damage to plant), PANMI",rate 30,0
same,"damage to plant (100=total damage to plant; 0=no damage to plant), PANMI",rate 60,0
same,"damage to plant (100=total damage to plant; 0=no damage to plant), PANMI",rate 130,0
same,"damage to plant (100=total damage to plant; 0=no damage to plant), PANMI",rate 250,0
same,"damage to plant (100=total damage to plant; 0=no damage to plant), PANMI",rate 500,0
same,"damage to plant (100=total damage to plant; 0=no damage to plant), SETFA",rate 15,0
same,"damage to plant (100=total damage to plant; 0=no damage to plant), SETFA",rate 30,0
same,"damage to plant (100=total damage to plant; 0=no damage to plant), SETFA",rate 60,10
same,"damage to plant (100=total damage to plant; 0=no damage to plant), SETFA",rate 130,80
same,"damage to plant (100=total damage to plant; 0=no damage to plant), SETFA",rate 250,90
same,"damage to plant (100=total damage to plant; 0=no damage to plant), SETFA",rate 500,90
same,"damage to plant (100=total damage to plant; 0=no damage to plant), SORVU",rate 15,0
same,"damage to plant (100=total damage to plant; 0=no damage to plant), SORVU",rate 30,0
same,"damage to plant (100=total damage to plant; 0=no damage to plant), SORVU",rate 60,0
same,"damage to plant (100=total damage to plant; 0=no damage to plant), SORVU",rate 130,0
same,"damage to plant (100=total damage to plant; 0=no damage to plant), SORVU",rate 250,0
same,"damage to plant (100=total damage to plant; 0=no damage to plant), SORVU",rate 500,0
